What was measured:
[1] = oral midazolam with fluconazole; cited from earlier work
[2] = cited from earlier work
[3] = Therapeutic drug monitoring of sirolimus trough concentration; type: in vivo, human
PopPK modeling = type: in vivo, human; settings: for Vd: female, human, blood, oral

Structure (SMILES)	increase of AUC [1]	increase of C max [1]	variation in apparent oral clearance between patients ([2]; ciclosporin and prednisone coadministered)	apparent oral sirolimus clearance, population mean ([2]; estimated by Wu and coworkers)	sirolimus C min ([3]; 4.5 mg twice daily with fluconazole 400 mg/day)	sirolimus C min ([3]; 9 mg daily with oral fluconazole 400 mg once daily, day 3 after initiation)	sirolimus C min ([3]; after 1 week of 9 mg/day (assumed steady-state), no fluconazole)	sirolimus concentrations ([3]; afterward, during fluconazole, for more than 4 weeks)	mean sirolimus C min ([3]; maintenance dose 9 mg sirolimus/day, before fluconazole)	CL1 (apparent oral clearance, clearance from central compartment) (PopPK modeling; before fluconazole)	CL2 (clearance between central and peripheral compartments) (PopPK modeling; before fluconazole)	V 2 (volume of distribution of peripheral compartment) (PopPK modeling; before fluconazole)	CL1 (apparent oral clearance, clearance from central compartment) (PopPK modeling; during fluconazole)	CL2 (clearance between central and peripheral compartments) (PopPK modeling; during fluconazole)	V 2 (volume of distribution of peripheral compartment) (PopPK modeling; during fluconazole)	Vd (PopPK modeling)	Vd (PopPK modeling; 5 mg/day)
Cc1ncc2n1-c1ccc(Cl)cc1C(c1ccccc1F)=NC2 [midazolam]	270%	130%	–	–	–	–	–	–	–	–	–	–	–	–	–	–	–
CO[C@H]1C[C@@H]2CC[C@@H](C)[C@@](O)(O2)C(=O)C(=O)N2CCCC[C@H]2C(=O)O[C@H]([C@H](C)C[C@@H]2CC[C@@H](O)[C@H](OC)C2)CC(=O)[C@H](C)/C=C(\C)[C@@H](O)[C@@H](OC)C(=O)[C@H](C)C[C@H](C)/C=C/C=C/C=C/1C [sirolimus]	–	–	4.5 fold	12.9 L/h	8.2 ng/mL	4.7 ng/mL	2.9 to 4.2 ng/mL	3.1 to 9.5 ng/mL	3.5 ng/mL	30.7 L/h	253 L/h	305 L	14.1 L/h	8.56 L/h	361 L	81.3 L	33.7 L
